Data on 17 compounds can be found in patent publication US9144239B2, “Macrocyclic picolinamides as fungicides” (DOW AGROSCIENCES LLC, priority 2012, dated 2015).

Type in all cases: in vivo
For one assay, the system named is Leptosphaeria nodorum. The experiment in a line: Fungicidal activity: wheat glume blotch (LEPTNO). Conditions: Parastagonospora nodorum, 24 h, 1 Day Protectant, read-out: Disease Control LEPTNO 1 DP. As for the experimental part:
Technical grades of materials were dissolved in acetone, which were then mixed with nine volumes of water containing 110 ppm Triton X-100. The fungicide solutions were applied onto wheat seedlings using an automated booth sprayer to run-off. All sprayed plants were allowed to air dry prior to further handling. Wheat plants (variety Yuma) were grown from seed in a greenhouse in 50% mineral soil/50% soil-less Metro mix until the first leaf was fully emerged, with 7-10 seedlings per pot. These plants were inoculated with an aqueous spore suspension of Septoria tritici either prior to or after fungicide treatments. After inoculation the plants were kept in 100% relative humidity (one day in a dark dew chamber followed by two to three days in a lighted dew chamber at 20° C.) to permit spores to germinate and infect the leaf. The plants were then transferred to a greenhouse set at 20° C. for disease to develop. When disease symptoms were fully expressed on the 1st leaves of untreated plants, infection levels were assessed on a scale of 0 to 100 percent disease severity. Percent disease control was calculated using the ratio of disease severity on treated plants relative to untreated plants. Evaluation of Fungicidal Activity: Wheat Glume Blotch (Leptosphaeria nodorum; Bayer Code […]) Wheat plants (variety Yuma) were grown from seed in a greenhouse in 50% mineral soil/50% soil-less Metro mix until the first leaf was fully emerged, with 7-10 seedlings per pot. These plants were inoculated with an aqueous spore suspension of Leptosphaeria nodorum 24 hr after fungicide treatments. After inoculation the plants were kept in 100% relative humidity (one day in a dark dew chamber followed by two days in a lighted dew chamber at 20° C.) to permit spores to germinate and infect the leaf. The plants were then transferred to a greenhouse set at 20° C. for disease to develop. Fungicide formulation, application and disease assessment followed the procedures as described in the Example A.

For another assay, the system named is Alternaria solani. As to the kind of experiment: Fungicidal activity: tomato early blight (ALTESO). The note with it: 24 h, 1 Day Protectant, read-out: Disease Control ALTESO 1DP. The protocol:
Technical grades of materials were dissolved in acetone, which were then mixed with nine volumes of water containing 110 ppm Triton X-100. The fungicide solutions were applied onto wheat seedlings using an automated booth sprayer to run-off. All sprayed plants were allowed to air dry prior to further handling. Wheat plants (variety Yuma) were grown from seed in a greenhouse in 50% mineral soil/50% soil-less Metro mix until the first leaf was fully emerged, with 7-10 seedlings per pot. These plants were inoculated with an aqueous spore suspension of Septoria tritici either prior to or after fungicide treatments. After inoculation the plants were kept in 100% relative humidity (one day in a dark dew chamber followed by two to three days in a lighted dew chamber at 20° C.) to permit spores to germinate and infect the leaf. The plants were then transferred to a greenhouse set at 20° C. for disease to develop. When disease symptoms were fully expressed on the 1st leaves of untreated plants, infection levels were assessed on a scale of 0 to 100 percent disease severity. Percent disease control was calculated using the ratio of disease severity on treated plants relative to untreated plants. Evaluation of Fungicidal Activity: Tomato Early Blight (Alternaria solani; Bayer Code […]) Tomato plants (variety Outdoor girl) were propagated in soil-less Metro mix, with each pot having one plant, and used when 12 to 14 days old. Test plants were inoculated with an aqueous spore suspension of Alternaria solani 24 hr after fungicide treatments. After inoculation the plants were kept in 100% relative humidity (one day in a dark dew chamber followed by two to three days in a lighted dew chamber at 20° C.) to permit spores to germinate and infect the leaf. The plants were then transferred to a growth room at 22° C. for disease to develop. Fungicide formulation, application and disease assessment on the sprayed leaves followed the procedures as described in the Example A.

Assay [1] has as its system Glomerella lagenarium; anamorph: Colletotrichum lagenarium. The experiment in a line: Fungicidal activity: cucumber anthracnose (COLLLA). Conditions: Colletotrichum orbiculare, 24 h, 1 Day Protectant, read-out: Disease Control COLLLA 1DP. As for the experimental part:
Technical grades of materials were dissolved in acetone, which were then mixed with nine volumes of water containing 110 ppm Triton X-100. The fungicide solutions were applied onto wheat seedlings using an automated booth sprayer to run-off. All sprayed plants were allowed to air dry prior to further handling. Wheat plants (variety Yuma) were grown from seed in a greenhouse in 50% mineral soil/50% soil-less Metro mix until the first leaf was fully emerged, with 7-10 seedlings per pot. These plants were inoculated with an aqueous spore suspension of Septoria tritici either prior to or after fungicide treatments. After inoculation the plants were kept in 100% relative humidity (one day in a dark dew chamber followed by two to three days in a lighted dew chamber at 20° C.) to permit spores to germinate and infect the leaf. The plants were then transferred to a greenhouse set at 20° C. for disease to develop. When disease symptoms were fully expressed on the 1st leaves of untreated plants, infection levels were assessed on a scale of 0 to 100 percent disease severity. Percent disease control was calculated using the ratio of disease severity on treated plants relative to untreated plants. Evaluation of Fungicidal Activity: Cucumber Anthracnose (Glomerella lagenarium; Anamorph: Colletotrichum lagenarium; Bayer Code COLLLA) Cucumber seedlings (variety Bush Pickle) were propagated in soil-less Metro mix, with each pot having one plant, and used in the test when 12 to 14 days old. Test plants were inoculated with an aqueous spore suspension of Colletotrichum lagenarium 24 hr after fungicide treatments. After inoculation the plants were kept in a dew room at 22° C. with 100% relative humidity for 48 hr to permit spores to germinate and infect the leaf. The plants were then transferred to a growth room set at 22° C. for disease to develop. Fungicide formulation, application and disease assessment on the sprayed leaves followed the procedures as described in the Example A.

On to `COc1ccnc(C(=O)N[C@H]2COC[C@H](OCC(C)C)[C@@H](OCC(C)C)[C@H](C)OC2=O)c1OCOC(C)=O` [Compound 3, (2-((3S,7S,8S,9S)-7,8-diisobutoxy-9-methyl-2-oxo-1,5-dioxonan-3-ylcarbamoyl)-4-methoxypyridin-3-yloxy)methyl], for which the pest or weed control at 100 ppm in the assay on Leptosphaeria nodorum fell in the range of 80 to 100%; in the assay with Alternaria solani, 0 to 80%; in assay [1] it was 80 to 100%.
On to `COc1ccnc(C(=O)NC2COC[C@H](OCc3ccccc3)[C@@H](OCc3ccccc3)[C@H](C)OC2=O)c1OCOC(C)=O` (stereo partly drawn) [Compound 12], for which the pest or weed control at 100 ppm in the assay on Leptosphaeria nodorum was in the range of 80 to 100%; in the assay with Alternaria solani, 0 to 80%; in assay [1], 80 to 100%.
With `CCCCO[C@H]1COC[C@H](NC(=O)c2nccc(OC)c2OCOC(C)=O)C(=O)O[C@@H](C)[C@@H]1OCCOC` [Compound 54], the pest or weed control at 100 ppm (in the assay on Leptosphaeria nodorum; in assay [1]) was 80 to 100% each time.
Regarding `CCCCO[C@H]1COC[C@H](NC(=O)c2nccc(OC)c2OCOC(C)=O)C(=O)O[C@@H](C)[C@@H]1OCC(F)F` [Compound 55], the pest or weed control at 100 ppm (in the assay with Leptosphaeria nodorum; in assay [1]) was 80 to 100% throughout.
Take `COc1ccnc(C(=O)N[C@H]2COC[C@H](OC(=O)C(C)C)[C@@H](OC(=O)C(C)C)[C@H](C)OC2=O)c1OCOC(C)=O` [Compound 57]: the values for the pest or weed control at 100 ppm (in the assay on Leptosphaeria nodorum; in the assay with Alternaria solani; in assay [1]) were 0 to 80%, 0 to 80% and 80 to 100%, respectively.
With `COc1ccnc(C(=O)N[C@H]2COC[C@H](OCCCc3ccccc3)[C@@H](OCCCc3ccccc3)[C@H](C)OC2=O)c1OCOC(C)=O` [Compound 60], the pest or weed control at 100 ppm with Leptosphaeria nodorum was 80 to 100%; in the assay on Alternaria solani, 0 to 80%; in assay [1], 80 to 100%.
In the case of `COc1ccnc(C(=O)N[C@H]2COC[C@H](OC)[C@@H](OC)[C@H](C)OC2=O)c1OCOC(C)=O` [Compound 65], the pest or weed control at 100 ppm (with Leptosphaeria nodorum; in assay [1]) was 0 to 80% in each case.
`COc1ccnc(C(=O)N[C@H]2COC[C@H](OCCCC(F)(F)F)[C@@H](OCCCC(F)(F)F)[C@H](C)OC2=O)c1OCOC(C)=O` [Compound 68]: the pest or weed control at 100 ppm lay in the range of 80 to 100% in the assay with Leptosphaeria nodorum, 0 to 80% in the assay on Alternaria solani and 80 to 100% in assay [1].
Consider `COc1ccnc(C(=O)N[C@H]2COC[C@H](OCC(C)C)[C@@H](OC3CCCCC3)[C@H](C)OC2=O)c1OCOC(C)=O` [Compound 77], for which the pest or weed control at 100 ppm lay in the range of 80 to 100% with Leptosphaeria nodorum, 0 to 80% in the assay with Alternaria solani and 80 to 100% in assay [1].
On to `CCC(C)(C)O[C@H]1COC[C@H](NC(=O)c2nccc(OC)c2OCOC(C)=O)C(=O)O[C@@H](C)[C@@H]1OCC(C)C` [Compound 78], for which the figures for the pest or weed control at 100 ppm (with Leptosphaeria nodorum; in the assay on Alternaria solani; in assay [1]) were 80 to 100%, 0 to 80% and 80 to 100%, respectively.
On to `COc1ccnc(C(=O)N[C@H]2COC[C@H](Oc3ccccc3)[C@@H](Oc3ccccc3)[C@H](C)OC2=O)c1OCOC(C)=O` [Compound 84], for which the pest or weed control at 100 ppm in the assay on Leptosphaeria nodorum lay in the range of 80 to 100%; with Alternaria solani, 0 to 80%; in assay [1], 80 to 100%.
`COc1ccnc(C(=O)N[C@H]2COC[C@H](OCC(C)C)[C@@H](Oc3ccccc3)[C@H](C)OC2=O)c1OCOC(C)=O` [Compound 85]: the results for the pest or weed control at 100 ppm (in the assay with Leptosphaeria nodorum; with Alternaria solani; in assay [1]) were 80 to 100%, 0 to 80% and 80 to 100%, respectively.
`COc1ccnc(C(=O)N[C@H]2COC[C@H](Oc3ccccc3)[C@@H](OCC(C)C)[C@H](C)OC2=O)c1OCOC(C)=O` [Compound 86]: the pest or weed control at 100 ppm (with Leptosphaeria nodorum; in the assay with Alternaria solani; in assay [1]) was 80 to 100% in each case.
As to `CCCO[C@H]1COC[C@H](NC(=O)c2nccc(OC)c2OCOC(C)=O)C(=O)O[C@@H](C)[C@@H]1Oc1ccccc1` [Compound 221], in assay [1], the pest or weed control at 100 ppm was 80 to 100%.
Consider `CCCO[C@H]1[C@H](C)OC(=O)[C@@H](NC(=O)c2nccc(OC)c2OCOC(C)=O)COC[C@@H]1Oc1ccccc1` [Compound 222], for which the pest or weed control at 100 ppm in the assay on Alternaria solani was 0 to 80%; in assay [1], 80 to 100%.
Turning to `COc1ccnc(C(=O)N[C@H]2COC[C@H](Oc3ccc(F)cc3)[C@@H](Oc3ccc(F)cc3)[C@H](C)OC2=O)c1OC(C)=O` [Compound 229, 2-(((3S,7S,8S,9S)-7,8-bis(4-fluorophenoxy)-9-methyl-2-oxo-1,5-dioxonan-3-yl)carbamoyl)-4-methoxypyridin-3-yl acetate], the pest or weed control at 100 ppm in the assay with Leptosphaeria nodorum lay within 80 to 100%; in the assay with Alternaria solani it was 0 to 80%; in assay [1], 80 to 100%.
For the compound `COc1ccnc(C(=O)N[C@H]2COC[C@H](Oc3ccc(F)cc3)[C@@H](Oc3ccc(F)cc3)[C@H](C)OC2=O)c1OCOC(C)=O` [Compound 231], the pest or weed control at 100 ppm with Leptosphaeria nodorum was 80 to 100%; in the assay on Alternaria solani it was 0 to 80%; in assay [1], 80 to 100%.
